What all share (assay type): functional, cell-based
Settings in all cases: oocyte

For data set [1], the target named is T1, Organic anion transporter 3 (Homo sapiens, UniProt Q8TCC7).
T1 sequence (Q8TCC7 whole entry): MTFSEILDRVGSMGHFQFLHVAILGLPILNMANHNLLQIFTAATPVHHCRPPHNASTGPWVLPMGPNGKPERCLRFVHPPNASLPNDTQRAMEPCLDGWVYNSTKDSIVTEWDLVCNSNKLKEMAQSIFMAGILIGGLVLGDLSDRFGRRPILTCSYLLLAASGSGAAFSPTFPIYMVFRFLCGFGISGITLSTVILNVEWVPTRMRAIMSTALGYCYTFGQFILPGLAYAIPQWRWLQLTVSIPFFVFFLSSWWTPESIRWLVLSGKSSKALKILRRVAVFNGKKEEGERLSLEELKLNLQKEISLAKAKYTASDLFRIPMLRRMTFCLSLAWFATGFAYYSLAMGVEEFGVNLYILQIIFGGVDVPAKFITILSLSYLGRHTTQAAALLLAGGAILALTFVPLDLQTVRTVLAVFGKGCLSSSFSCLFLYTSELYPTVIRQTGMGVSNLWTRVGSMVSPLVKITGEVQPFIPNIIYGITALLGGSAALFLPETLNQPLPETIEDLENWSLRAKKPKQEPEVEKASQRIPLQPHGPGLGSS
Briefly: (§1) TP_TRANSPORTER: uptake in Xenopus laevis oocytes.

For data set [2], the target named is T2, Solute carrier family 22 member 6 (Homo sapiens, UniProt Q4U2R8).
T2 sequence (Q4U2R8 whole entry): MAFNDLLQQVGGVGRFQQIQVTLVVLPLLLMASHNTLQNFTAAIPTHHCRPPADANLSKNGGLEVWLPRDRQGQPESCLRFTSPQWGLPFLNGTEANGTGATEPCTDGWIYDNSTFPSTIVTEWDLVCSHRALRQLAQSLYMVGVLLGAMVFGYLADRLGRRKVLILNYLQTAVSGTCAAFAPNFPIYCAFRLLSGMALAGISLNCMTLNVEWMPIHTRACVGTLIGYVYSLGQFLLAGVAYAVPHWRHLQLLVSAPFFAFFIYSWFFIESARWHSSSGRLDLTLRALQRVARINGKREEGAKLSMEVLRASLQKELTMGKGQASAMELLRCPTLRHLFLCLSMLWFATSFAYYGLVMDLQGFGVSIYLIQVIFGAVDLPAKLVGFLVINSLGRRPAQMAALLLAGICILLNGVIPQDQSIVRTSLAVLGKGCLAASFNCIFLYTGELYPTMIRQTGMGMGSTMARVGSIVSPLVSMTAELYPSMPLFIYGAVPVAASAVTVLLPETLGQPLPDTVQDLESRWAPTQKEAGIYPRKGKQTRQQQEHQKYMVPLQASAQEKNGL
Briefly: TP_TRANSPORTER: inhibition of PAH uptake (PAH: 1 uM, Bumetamide: 100 uM) in Xenopus laevis oocytes.

Data set [3] has as its target T2, Solute carrier family 22 member 6. Described as §1.
Data set [4] shares this target. The data set can be described thus: TP_TRANSPORTER: inhibition of PAH uptake (PAH: 1 uM, Urate: 100 uM) in Xenopus laevis oocytes.
Data set [5] has the same target. Briefly: TP_TRANSPORTER: inhibition of PAH uptake (PAH: 1 uM, Hydrochlorothiazide: 100 uM) in Xenopus laevis oocytes.
The target is the same in data set [6]. The data set can be described thus: TP_TRANSPORTER: inhibition of PAH uptake (PAH: 1 uM, Losartan: 100 uM) in Xenopus laevis oocytes.

SMILES strings stand for the structures.

As for `O=C([O-])C(=O)[O-].[Na+].[Na+]` [SODIUM OXALATE], in data set [1], the Activity entry was “is not a substrate [-]”.

As for `CCCCNc1cc(C(=O)O)cc(S(N)(=O)=O)c1Oc1ccccc1` [BUMETANIDE], the Activity entry in data set [2] is “inhibitor [(at a rough estimate) 45 % of control]”.

Regarding `O=c1[nH]c(=O)c2[nH]c(=O)[nH]c2[nH]1` [URIC ACID], the Activity result in data set [1] is “is not a substrate [-]”; in data set [3], “is not a substrate [-]”; in data set [4], “is not an inhibitor [-]”.

As for `Nc1ccc(C(=O)NCC(=O)O)cc1` [AMINOHIPPURIC ACID], the Activity result in data set [1] is “is not a substrate [-]”.

`NS(=O)(=O)c1cc2c(cc1Cl)NCNS2(=O)=O` [HYDROCHLOROTHIAZIDE]: the Activity entry in data set [5] is “is not an inhibitor [-]”.

As to `CC[N+](CC)(CC)CC` [TETRYLAMMONIUM], the Activity entry in data set [1] is “is not a substrate [-]”.

`CCCCc1nc(Cl)c(CO)n1Cc1ccc(-c2ccccc2-c2nn[nH]n2)cc1` [LOSARTAN]: in data set [6], the Activity result was “inhibitor [(at a rough estimate) 25 % of control]”.

Values taken from ChEMBL document CHEMBL2074484, “Molecular cloning and characterization of two novel human renal organic anion transporters (hOAT1 and hOAT3)” (Biochem Biophys Res Commun, 1999).
